{"source": "patent US20230131929A1", "about": "“QUINOLINE COMPOUNDS FOR TREATING RESPIRATORY DISORDERS AND VIRAL INFECTIONS” (Aldeyra Therapeutics, Inc., priority 2020, published 2023)", "key": {"[1]": {"assay": "rodent models of NASH", "format": "in vivo", "conditions": "three different rodent models of NASH", "excerpt": "(§1) These cytokines and chemokines affect Th1, Th2, and Th17 pathways, all of which are important in immune homeostasis and disease (Kaiko et al., Immunology 123:326-338, 2007. DOI 10.1111/j.1365-2567.2007.02719.x.; Weaver et al., Annu. Rev. Pathol 8:477-512, 2013. DOI 10.1146/annurev-pathol-011110-130318)."}, "[2]": {"system": "inflammatory cytokines and chemokines", "assay": "LPS-induced mouse model of acute sepsis, plasma cytokine profile", "format": "in vivo", "conditions": "for IL-10 plasma level, significance of effect: anti-inflammatory cytokine, release facilitated", "description": "FIG. 4 and FIG. 5 show the effect of compound I-1 on levels of various inflammatory cytokines in a preclinical sepsis model. In the study, lipopolysaccharide (LPS) was administered IP to mice. 30 minutes later, I-1 was administered IP or PO. Mice were sacrificed after 2 hours, and their plasma submitted for cytokine profile analysis. IP=intraperitoneally; PO=orally; mpk=mg per kg. […]\nFIG. 4 and FIG. 5 show the effect of compound I-1 on levels of various inflammatory cytokines in a preclinical sepsis model. In the study, lipopolysaccharide (LPS) was administered IP to mice. 30 minutes later, I-1 was administered IP or PO. Mice were sacrificed after 2 hours, and their plasma submitted for cytokine profile analysis. IP=intraperitoneally; PO=orally. As shown in the table below, I-1 decreased several pro-inflammatory cytokines. * P≤0.05; ** P≤0.01; *** P≤0.001; **** P≤0.0001."}, "[3]": {"assay": "dextran sulfate sodium (DSS)-induced mouse model of UC", "format": "in vivo", "excerpt": "as §1"}, "[4]": {"system": "leukocyte migration", "assay": "LPS-induced acute lung injury model (preclinical ARDS model)", "format": "in vivo", "conditions": "administered IP", "excerpt": "In the bottom panel, the effect of test compounds on leukocyte migration is shown in the model. […] Free RASP are toxic, leading to inflammation and molecular dysfunction by covalently binding to cellular biomolecules, and have been linked to systemic immune-mediated and inflammatory diseases, such as NASH, inflammatory bowel disease (IBD), and other diseases. […]"}, "[5]": {"conditions": "clinical trials; cited from earlier work"}, "[6]": {"conditions": "100 mpk IP 30 min after LPS IP, mice, plasma after 2 hours"}, "[7]": {"conditions": "400 mpk PO 30 min after LPS IP, mice, plasma after 2 hours"}, "[8]": {"conditions": "LPS-induced mouse model of acute sepsis"}, "[9]": {"conditions": "LPS-induced acute lung injury model"}}, "data": [{"smiles": "CC(C)(O)c1nc2ccccc2cc1N", "note": "[I-1]", "values": [{"measurement": "circulating markers of liver function and inflammation (liver inflammation, steatosis, hepatocyte ballooning, fibrosis)", "setting": "[1]", "result": "may have beneficial effects"}, {"measurement": "GM-CSF plasma level, significance of effect", "setting": "[2]; [6]", "result": "* (* P≤0.05)"}, {"measurement": "IFNγ plasma level, significance of effect", "setting": "[2]; [6]", "result": "*** (*** P≤0.001)"}, {"measurement": "IL-1β plasma level, significance of effect", "setting": "[2]; [6]", "result": "** (** P≤0.01)"}, {"measurement": "IL-5 plasma level, significance of effect", "setting": "[2]; [6]", "result": "**** (**** P≤0.0001)"}, {"measurement": "IL-7 plasma level, significance of effect", "setting": "[2]; [6]", "result": "** (** P≤0.01)"}, {"measurement": "IL-12 (p40) plasma level, significance of effect", "setting": "[2]; [6]", "result": "*** (*** P≤0.001)"}, {"measurement": "IL-17 plasma level, significance of effect", "setting": "[2]; [6]", "result": "** (** P≤0.01)"}, {"measurement": "M-CSF plasma level, significance of effect", "setting": "[2]; [6]", "result": "* (* P≤0.05)"}, {"measurement": "MIP-1α plasma level, significance of effect", "setting": "[2]; [6]", "result": "** (** P≤0.01)"}, {"measurement": "MIP-1β plasma level, significance of effect", "setting": "[2]; [6]", "result": "** (** P≤0.01)"}, {"measurement": "MIP-2 plasma level, significance of effect", "setting": "[2]; [6]", "result": "** (** P≤0.01)"}, {"measurement": "TNFα plasma level, significance of effect", "setting": "[2]; [6]", "result": "* (* P≤0.05)"}, {"measurement": "VEGF plasma level, significance of effect", "setting": "[2]; [6]", "result": "* (* P≤0.05)"}, {"measurement": "IL-10 plasma level, significance of effect", "setting": "[2]; [6]", "result": "** (** P≤0.01)"}, {"measurement": "IFNγ plasma level, significance of effect", "setting": "[2]; [7]", "result": "*** (*** P≤0.001)"}, {"measurement": "IL-1β plasma level, significance of effect", "setting": "[2]; [7]", "result": "** (** P≤0.01)"}, {"measurement": "IL-5 plasma level, significance of effect", "setting": "[2]; [7]", "result": "**** (**** P≤0.0001)"}, {"measurement": "IL-7 plasma level, significance of effect", "setting": "[2]; [7]", "result": "* (* P≤0.05)"}, {"measurement": "IL-12 (p40) plasma level, significance of effect", "setting": "[2]; [7]", "result": "**** (**** P≤0.0001)"}, {"measurement": "IL-15 plasma level, significance of effect", "setting": "[2]; [7]", "result": "** (** P≤0.01)"}, {"measurement": "IL-17 plasma level, significance of effect", "setting": "[2]; [7]", "result": "* (* P≤0.05)"}, {"measurement": "M-CSF plasma level, significance of effect", "setting": "[2]; [7]", "result": "*** (*** P≤0.001)"}, {"measurement": "MCP-1 plasma level, significance of effect", "setting": "[2]; [7]", "result": "** (** P≤0.01)"}, {"measurement": "MIP-1α plasma level, significance of effect", "setting": "[2]; [7]", "result": "* (* P≤0.05)"}, {"measurement": "MIP-1β plasma level, significance of effect", "setting": "[2]; [7]", "result": "* (* P≤0.05)"}, {"measurement": "IL-10 plasma level, significance of effect", "setting": "[2]; [7]", "result": "** (** P≤0.01)"}, {"measurement": "release of inflammatory cytokines and chemokines", "setting": "[2]; [8]", "result": "inhibit the release"}, {"measurement": "release of the anti-inflammatory cytokine interleukin (IL)-10", "setting": "[2]; [8]", "result": "facilitate the release"}, {"measurement": "disease parameters (body weight loss, disease activity score, colon length, colon edema, colon inflammation)", "setting": "[3]", "result": "improved several disease parameters"}]}, {"smiles": "CC(C)(O)c1nc2ccc(Cl)cc2cc1N", "note": "[I-2, reproxalap]", "values": [{"measurement": "infiltrating cells", "setting": "[4]; [9]", "result": "decreased infiltrating cells"}, {"measurement": "lung function", "setting": "[4]; [9]", "result": "improved lung function"}, {"measurement": "activity in LPS-induced acute lung injury model", "setting": "[4]; compared with saline and dexamethasone", "result": "promising activity"}, {"measurement": "effect in treating ocular inflammation", "setting": "[5]", "result": "beneficial effects"}]}]}
